These results are taken from patent EP0501354B1, “Anticataract composition” (Senju Pharmaceutical Co., Ltd., priority 1991, dated 1992).

Assay [1] is described as follows: Body weight during treatment of streptozotocin-diabetic rats. The assay is classed as in vivo, male SD rats. The settings on record: 100 mg/kg/day intraperitoneally once a day for 56 days; STZ-diabetic rats. How it is done: Streptozotocin (hereafter abbreviated as STZ), 70 mg/kg, was administered intravenously to 28 male SD rats aged 4 weeks to induce diabetes. Thereafter, the animals were divided into three groups (two groups consisting of 10 animals each and a group consisting of 8 animals). One group received 2% glutathione (dissolved in physiological saline, hereafter referred to as GSH group), another group S-(diethyl α,β-carboxyethyl)glutathione sodium (dissolved in physiological saline, hereafter referred to as DCE-EtGS group), and a third group physiological saline (hereafter referred to as control group), all intraperitoneally in a volume of 0.5 ml/100 g body weight once a day for 56 days (100 mg/kg/day as active substance). The lens was examined with a slit lamp under mydriasis with Mydrin-P before the beginning of drug administration and every seven days after initiation of administration. The degree of cataract was scored according to the rating scale of Sasaki et al. (Ophthalmic Res. 15: 185-190, 1983) and the anticataract activity of each drug was tested by time series analysis of variance. Body weights were taken on each observation day. Incidentally, blood glucose levels were determined 5 days after administration of STZ and the study was continued only after confirmation of hyperglycemia.

The subject of assay [2] is streptozotocin-induced diabetic cataract. In words: Inhibitory effect on streptozotocin-induced diabetic cataract (slit lamp, rating scale of Sasaki et al.). The assay is classed as in vivo, male SD rats. The settings on record: for time at which cataract scores were reached compared with control group / degree of progression of cataract, time series analysis of variance vs control group: 100 mg/kg/day intraperitoneally once a day for 56 days; for time at which cataract scores were reached compared with control group: rating scale of Sasaki et al. 0-6; for degree of progression of cataract, time series analysis of variance vs control group: scored every seven days; for vacuolation rate (of the eyes): after 7 days, 100 mg/kg/day intraperitoneally once a day, STZ 70 mg/kg i.v. rats, control group 45%. How it is done: Streptozotocin (hereafter abbreviated as STZ), 70 mg/kg, was administered intravenously to 28 male SD rats aged 4 weeks to induce diabetes. Thereafter, the animals were divided into three groups (two groups consisting of 10 animals each and a group consisting of 8 animals). […] The lens was examined with a slit lamp under mydriasis with Mydrin-P before the beginning of drug administration and every seven days after initiation of administration. The degree of cataract was scored according to the rating scale of Sasaki et al. (Ophthalmic Res. 15: 185-190, 1983) and the anticataract activity of each drug was tested by time series analysis of variance. Body weights were taken on each observation day. […] Rating scale of Sasaki et al. 0: No abnormality. 1: Vacuoles are present in the equator of the lens. 2: Vacuoles spread toward the anterior pole beneath the cortex of the anterior lens capsule. 3: Vacuole begin to merge. 4: The deep layer of the cortex of the anterior lens capsule is cloudy. 5: The central part of the lens is milk white in color. 6: Virtually the entire lens is milk white in color (mature cataract).

As for `CCOC(=O)CC(SCC(NC(=O)CCC(N)C(=O)O)C(=O)NCC(=O)O)C(=O)OCC` (stereo not drawn) [DCE-EtGS, S-(Diethyl α,β-dicarboxyethyl)glutathione sodium], the “Body weight gain vs control group” value in assay [1] was “significantly greater”. Besides, in assay [2], the “time at which cataract scores were reached compared with control group” value was “scores of 2, 4, 5 and 6 being reached later than in the control group”; the “degree of progression of cataract, time series analysis of variance vs control group” value is given as “significant delay of progression”; the “vacuolation rate (of the eyes)” value was 25%.
Take `N[C@@H](CCC(=O)N[C@@H](CS)C(=O)NCC(=O)O)C(=O)O` [GSH, glutathione, reference compound]: in assay [2], the “time at which cataract scores were reached compared with control group” value is “scores of 5 and 6 were reached later than in the control group”; the “degree of progression of cataract, time series analysis of variance vs control group” value is listed as “no significant difference from the control group”; the “vacuolation rate (of the eyes)” value is 56.3%.
